Source: US20130029937A1, “TREATMENT OF SURFACTANTS” (SOLAEROMED INC., priority 2007, published 2013)

Experiments:
[1] = CBS dynamic cycling of BLES with added (oxidized) phospholipids; type: physicochemical, bovine; conditions: non-oxidized lipid in BLES containing cholesterol, exposure to ambient air
Description: In this Example, the role of oxidized polyunsaturated phospholipids in causing cholesterol-dependent surfactant dysfunction was studied. Oxidation of surfactant by the Fenton-like reaction or in the presence of ROS in the inflamed lung results in the formation of lipid-peroxides with polyunsaturated phospholipids the principal target. […] This introduction of a hydrophilic group in the formerly hydrophobic region will disrupt lipid packing. […] This is consistent with peroxidized PLPC, CL and other polyunsaturated phospholipids present in surfactant causing dysfunction together with cholesterol. […]
To ensure accurate mixing, additional lipids were added to lipid extracts of BLES or oxBLES as organic solutions. […] Phospholipid concentration was assessed using a phosphate assay (Gentaur Molecular Products, Kampenhout, Belgium) after liberation of free phosphate (Duck-Chong C G (1979) A rapid sensitive method for determining phospholipid phosphorus involving digestion with magnesium nitrate. Lipids 14: 492-497). […] BLES contained 2.60% cholesterol (w/w phospholipids) as determined using an enzymatic assay for cholesterol (Amplex Red Cholesterol Assay, Invitrogen, Eugene, Oreg., USA). hSP-A was added to dried films when indicated to a final concentration of 5% (w/w phospholipids). […]

[2] = captive bubble surfactometer (CBS), oxidized BLES with added cholesterol; type: physicochemical, cattle; conditions: MβCD (20 mmol) in the aqueous phase
Experimental: In a model study, 0, 5 and 10 weight percent cholesterol was added to a ROS-exposed cattle lipid surfactant extract as an example of how even a normal (physiological) amount of cholesterol renders surfactant exposed to ROS and its derivatives dysfunctional; the function of the surfactant model was determined in a captive bubble surfactometer (CBS).
Surface activity of surfactant was determined with a computer-controlled captive bubble surfactometer (CBS) as described in detail by Gunasekara et al. (Gunasekara L, Schoel W M, Schürch S & Amrein M W (2008) A comparative study of mechanisms of surfactant inhibition. BBA—Biomembranes 1778: 433-444), with two important changes: 1) A transparent capillary was used to deposit a ˜1.0 μL bolus of 27 mg/mL surfactant near the air-buffer interface. The quantity and concentration of surfactant were chosen to minimize effects caused by insufficient surfactant or bulk phase adsorption. This amount of native BLES reliably reproduces minimum and maximum surface tensions as measured in situ at functional reserve capacity and total lung capacity (<1 mN/m and ˜30 mN/m, respectively) (Bachofen H & Schtirch S (2001) Alveolar surface forces and lung architecture. Comparative Biochemistry and Physiology—Part A: Molecular & Integrative Physiology 129: 183-193). […]

[3] = murine model of acute lung injury (acid injury), MβCD aerosol, surfactant function; type: in vivo, mice
Description: In this study, a murine model of acute lung injury (ALI), the earliest phase of ARDS, was created by acid injury of the lung according to published procedures (Allen, G. B. et al. Neither fibrin nor plasminogen activator inhibitor-1 deficiency protects lung function in a mouse model of acute lung injury. American Journal of Physiology-Lung Cellular and Molecular Physiology 296, L277-L285 (2009)) and analyzed with respect to lung mechanics, oxygenation, lung histology, lung ultrastructure, surfactant function and composition (FIGS. 3A-E). Elastance (or its inverse, compliance) and pressure-volume curves are commonly used to assess lung function in ALI/ARDS (JONSON, B. et al. Pressure-volume curves and compliance in acute lung injury. American journal of respiratory and critical care medicine 159, 1172-1178 (1999)).

surface tension [2]	Compound	surfactant function over time [1]	surfactant function in vivo ([3]; in the lung, given as an aerosol)	minimum surface tension of surfactant ([3]; injured mice treated with an MβCD-aerosol) [mN/m]
	CCCCC/C=C\C/C=C\CCCCCCCC(=O)OC[C@H](COP(=O)(O)OCC(O)COP(=O)(O)OC[C@H](COC(=O)CCCCCCC/C=C\C/C=C\CCCCC)OC(=O)CCCCCCC/C=C\C/C=C\CCCCC)OC(=O)CCCCCCC/C=C\C/C=C\CCCCC (some centres unmarked) [CL, 1′,3′-Bis[1,2-dilinoleoyl-sn-glycero-3-phospho]-sn-glycerol]	became dysfunctional after several hours		
	CCCCC/C=C\C/C=C\CCCCCCCC(=O)O[C@H](COC(=O)CCCCCCCCCCCCCCC)COP(=O)([O-])OCC[N+](C)(C)C [PLPC, 1-palmitoyl-2-linoleoyl-sn-glycero-3-phosphocholine]	became dysfunctional after several hours		
almost zero	methyl-β-cyclodextrin [MβCD]		can restore surfactant function	< 10
